#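 Values below derive from 48-hour exposures of cells grown in 96-well plates, with endpoints linearly interpolated between the two concentrations bracketing the appropriate inhibition level. GI50 marks 50% less growth. At the TGI there is no net growth.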
# Columns and labels:
# Assay in all cases: NCI anticancer screen, dose series, 48 h
# MDA-MB-435 = tested on: MDA-MB-435
# NCI-H226 lung = tested on: NCI-H226 lung
# A498 renal = tested on: A498 renal
# HOP-62 NSCLC = tested on: HOP-62 NSCLC
# KM12 colon = tested on: KM12 colon
# T-47D breast = tested on: T-47D breast
# UACC-257 melanoma = tested on: UACC-257 melanoma
# M14 melanoma = tested on: M14 melanoma
# RXF 393 renal = tested on: RXF 393 renal
# MDA-MB-231 breast = tested on: MDA-MB-231 breast
# SNB-75 CNS = tested on: SNB-75 CNS
# SK-MEL-28 melanoma = tested on: SK-MEL-28 melanoma
# HS 578T breast = tested on: HS 578T breast
# NCI-H23 lung = tested on: NCI-H23 lung
# HCC-2998 colon = tested on: HCC-2998 colon
# SK-MEL-2 melanoma = tested on: SK-MEL-2 melanoma
# UACC-62 melanoma = tested on: UACC-62 melanoma
# SR leukemia = tested on: SR leukemia
# SK-MEL-5 melanoma = tested on: SK-MEL-5 melanoma
# SK-OV-3 ovarian = tested on: SK-OV-3 ovarian
# K-562 leukemia = tested on: K-562 leukemia
# OVCAR-3 ovarian = tested on: OVCAR-3 ovarian
# CCRF-CEM leukemia = tested on: CCRF-CEM leukemia
# SF-539 CNS = tested on: SF-539 CNS
# U251 CNS = tested on: U251 CNS
# SW-620 colon = tested on: SW-620 colon
# HOP-92 NSCLC = tested on: HOP-92 NSCLC
# OVCAR-8 ovarian = tested on: OVCAR-8 ovarian
# NCI-H522 lung = tested on: NCI-H522 lung
# HT29 colon = tested on: HT29 colon
# SF-268 CNS = tested on: SF-268 CNS
# NCI-H460 lung = tested on: NCI-H460 lung
# HCT-116 colon = tested on: HCT-116 colon
# PC-3 prostate = tested on: PC-3 prostate
# MALME-3M melanoma = tested on: MALME-3M melanoma
# HL-60(TB) leukemia = tested on: HL-60(TB) leukemia
# EKVX NSCLC = tested on: EKVX NSCLC
# DU-145 prostate = tested on: DU-145 prostate
# COLO 205 colon = tested on: COLO 205 colon
# 786-0 renal = tested on: 786-0 renal
# ACHN renal = tested on: ACHN renal
# UO-31 renal = tested on: UO-31 renal
# MCF7 breast = tested on: MCF7 breast
# RPMI-8226 leukemia = tested on: RPMI-8226 leukemia
# HCT-15 colon = tested on: HCT-15 colon
# MOLT-4 leukemia = tested on: MOLT-4 leukemia
# OVCAR-4 ovarian = tested on: OVCAR-4 ovarian
# LOX IMVI melanoma = tested on: LOX IMVI melanoma
# SNB-19 CNS = tested on: SNB-19 CNS
# SF-295 CNS = tested on: SF-295 CNS
# TK-10 renal = tested on: TK-10 renal
# MDA-MB-468 breast = tested on: MDA-MB-468 breast
# IGROV1 ovarian = tested on: IGROV1 ovarian
# SN12C renal = tested on: SN12C renal
# BT-549 breast = tested on: BT-549 breast
# CAKI-1 renal = tested on: CAKI-1 renal
# A549 NSCLC = tested on: A549 NSCLC
# OVCAR-5 ovarian = tested on: OVCAR-5 ovarian
smiles,measurement,setting,value
O=C(c1ccc(Cl)cc1)C1[C@H](c2ccccc2Br)[C@@H](c2ccccc2)NC12C(=O)Nc1ccccc12 (stereo partly specified),GI50,MDA-MB-435,2.58 µM
same,TGI,MDA-MB-435,10.8 µM
same,GI50,NCI-H226 lung,3.85 µM
same,TGI,NCI-H226 lung,13.6 µM
same,GI50,A498 renal,8.75 µM
same,TGI,A498 renal,21.6 µM
same,GI50,HOP-62 NSCLC,6.54 µM
same,TGI,HOP-62 NSCLC,16.5 µM
same,GI50,KM12 colon,7.5 µM
same,TGI,KM12 colon,25.2 µM
same,GI50,T-47D breast,3.46 µM
same,TGI,T-47D breast,49 µM
same,GI50,UACC-257 melanoma,4.84 µM
same,TGI,UACC-257 melanoma,20.7 µM
same,GI50,M14 melanoma,4.86 µM
same,TGI,M14 melanoma,13.7 µM
same,GI50,RXF 393 renal,1.77 µM
same,TGI,RXF 393 renal,7.57 µM
same,GI50,MDA-MB-231 breast,1.72 µM
same,TGI,MDA-MB-231 breast,7.13 µM
same,GI50,SNB-75 CNS,0.765 µM
same,TGI,SNB-75 CNS,27.9 µM
same,GI50,SK-MEL-28 melanoma,7.44 µM
same,TGI,SK-MEL-28 melanoma,16.3 µM
same,GI50,HS 578T breast,2.51 µM
same,TGI,HS 578T breast,15.6 µM
same,GI50,NCI-H23 lung,5.78 µM
same,TGI,NCI-H23 lung,17.3 µM
same,GI50,HCC-2998 colon,6.32 µM
same,TGI,HCC-2998 colon,17.8 µM
same,GI50,SK-MEL-2 melanoma,4.44 µM
same,TGI,SK-MEL-2 melanoma,11.9 µM
same,GI50,UACC-62 melanoma,2.11 µM
same,TGI,UACC-62 melanoma,8.87 µM
same,GI50,SR leukemia,2 µM
same,TGI,SR leukemia,14 µM
same,GI50,SK-MEL-5 melanoma,2.42 µM
same,TGI,SK-MEL-5 melanoma,9.07 µM
same,GI50,SK-OV-3 ovarian,3.87 µM
same,TGI,SK-OV-3 ovarian,37 µM
same,GI50,K-562 leukemia,2.04 µM
same,TGI,K-562 leukemia,28.3 µM
same,GI50,OVCAR-3 ovarian,2.39 µM
same,TGI,OVCAR-3 ovarian,14 µM
same,GI50,CCRF-CEM leukemia,3.27 µM
same,TGI,CCRF-CEM leukemia,29.8 µM
same,GI50,SF-539 CNS,7.14 µM
same,TGI,SF-539 CNS,15.7 µM
same,GI50,U251 CNS,3.16 µM
same,TGI,U251 CNS,16 µM
same,GI50,SW-620 colon,3.43 µM
same,TGI,SW-620 colon,33.9 µM
same,GI50,HOP-92 NSCLC,2.06 µM
same,TGI,HOP-92 NSCLC,14.5 µM
same,GI50,OVCAR-8 ovarian,6.72 µM
same,TGI,OVCAR-8 ovarian,19.9 µM
same,GI50,NCI-H522 lung,1.3 µM
same,TGI,NCI-H522 lung,5.72 µM
same,GI50,HT29 colon,2.46 µM
same,TGI,HT29 colon,9.82 µM
same,GI50,SF-268 CNS,2.92 µM
same,TGI,SF-268 CNS,40.2 µM
same,GI50,NCI-H460 lung,2.3 µM
same,TGI,NCI-H460 lung,11.2 µM
same,GI50,HCT-116 colon,2.15 µM
same,TGI,HCT-116 colon,9.06 µM
same,GI50,PC-3 prostate,2.03 µM
same,TGI,PC-3 prostate,18.6 µM
same,GI50,MALME-3M melanoma,6.46 µM
same,TGI,MALME-3M melanoma,14.5 µM
same,GI50,HL-60(TB) leukemia,1.92 µM
same,TGI,HL-60(TB) leukemia,19.1 µM
same,GI50,EKVX NSCLC,6.22 µM
same,TGI,EKVX NSCLC,> 56 µM
same,GI50,DU-145 prostate,2.66 µM
same,TGI,DU-145 prostate,16.4 µM
same,GI50,COLO 205 colon,7.71 µM
same,TGI,COLO 205 colon,15.6 µM
same,GI50,786-0 renal,7.3 µM
same,TGI,786-0 renal,21.9 µM
same,GI50,ACHN renal,6.01 µM
same,TGI,ACHN renal,44.4 µM
same,GI50,UO-31 renal,2.49 µM
same,TGI,UO-31 renal,29.3 µM
same,GI50,MCF7 breast,1.81 µM
same,TGI,MCF7 breast,> 56 µM
same,GI50,RPMI-8226 leukemia,5.43 µM
same,TGI,RPMI-8226 leukemia,32.6 µM
same,GI50,HCT-15 colon,4.03 µM
same,TGI,HCT-15 colon,> 56 µM
same,GI50,MOLT-4 leukemia,2.06 µM
same,TGI,MOLT-4 leukemia,18.5 µM
same,GI50,OVCAR-4 ovarian,7.11 µM
same,TGI,OVCAR-4 ovarian,> 56 µM
same,GI50,LOX IMVI melanoma,1.99 µM
same,TGI,LOX IMVI melanoma,8.86 µM
same,GI50,SNB-19 CNS,10.8 µM
same,TGI,SNB-19 CNS,> 56 µM
same,GI50,SF-295 CNS,3.79 µM
same,TGI,SF-295 CNS,15.2 µM
same,GI50,TK-10 renal,9.48 µM
same,TGI,TK-10 renal,40.7 µM
same,GI50,MDA-MB-468 breast,1.11 µM
same,TGI,MDA-MB-468 breast,3.33 µM
same,GI50,IGROV1 ovarian,5.92 µM
same,TGI,IGROV1 ovarian,26.1 µM
same,GI50,SN12C renal,2.74 µM
same,TGI,SN12C renal,10 µM
same,GI50,BT-549 breast,2.4 µM
same,TGI,BT-549 breast,10.5 µM
same,GI50,CAKI-1 renal,1.67 µM
same,TGI,CAKI-1 renal,> 56 µM
same,GI50,A549 NSCLC,2.71 µM
same,TGI,A549 NSCLC,25 µM
same,GI50,OVCAR-5 ovarian,6.34 µM
same,TGI,OVCAR-5 ovarian,29.7 µM

# From PubChem BioAssay (NCI)
